In US20150017628A1, “CRYOPRESERVATION OF CELLS IN ABSENCE OF VITRIFICATION INDUCING AGENTS” (UNIVERSITY OF WARWICK, priority 2012, published 2015):

How the values were obtained:
[1] = Ice recrystallisation inhibition (IRI) modified splat assay; format: physicochemical; conditions: at these concentrations (1-10 mg·mL^-1)
Procedure: Determination of RI activity was achieved using a modified “splat” assay. A 10 μL droplet of the analyte solution in PBS was expelled at a fixed height of 2 m onto a glass coverslip placed upon a pre-cooled (CO2(s)) aluminium plate. This was immediately transferred onto the pre-cooled microscope stage (−6° C.) and left to anneal for 30 minutes. Photographs of the wafer were taken at both 0 and 30 minutes through crossed polarizers. A large number of the ice crystals (30+) were then measured to find the largest grain size dimension along any axis. The average largest value from 3 individual photographs was calculated to give the mean largest grain size (MLGS). Reported errors are the coefficient of variation (standard deviation/mean) from a minimum of 3 individual data sets. Values are reported as the MLGS relative to that obtained for PBS alone.
A polynucleated wafer of ice crystals (each ice crystal is <30 μm) was made from phosphate buffered saline (PBS) solutions of the additive being investigated. Following annealing at −6° C. for 30 minutes, the wafers were imaged through crossed polarisers and the size of the crystals measured. In addition to PVA, two common biocompatible polymers were also assessed for IRI activity; dextran and poly(ethylene glycol) (PEG, FIG. 1C), as they are both commonly added to cryopreservative solutions.

[2] = test system: erythrocytes; assay: Cryoprotectant haemocompatibility / cytotoxicity (haemolysis of erythrocytes); format: cell-based, ovine
Procedure: A 40 μL aliquot of the thawed erythrocyte solution was added to 400 μL PBS and centrifuged (1000×g, 5 min, 4° C.) to remove intact cells. 50 μL of the supernatant was added to 150 μL PBS in a 96-well plate and an absorbance measurement at 450 nm recorded to assess the extent of haemoglobin leakage. 100% haemolysis samples were prepared by osmotic shock through addition of 500 μL H2O to 500 μL erythrocytes suspension and the sample was vortexed vigorously. Control (0% haemolysis) samples were prepared by the addition of 500 μL PBS to 500 μL erythrocytes and left at room temperature (25° C.) for 60 minutes. All measurements were repeated a minimum of 5 times and the reported errors are the coefficient of variation (standard deviation/mean).
Erythrocytes were prepared as described above. A 500 μL aliquot of erythrocytes was added to 500 μL of the polymer or DMSO in PBS and mixed by inversion. The samples were incubated at 25° C. for 120 minutes before analysis. Haemolysis was measured in the same method as used for cryopreservation studies (above). All measurements were repeated in triplicate.
Fresh ovine (defibrinated) erythrocytes were prepared in an identical manner as aforementioned. Samples were prepared in triplicate. A 500 μL aliquot of erythrocytes was added to 500 μL 2× final concentration cryoprotectant in PBS and mixed by inversion. The samples were incubated at room temperature for 120 minutes before analysis. […] This is in contrast to some examples that defined toxicity only at levels exceeding 10% haemolysis. Concentrations higher than this were not deemed necessary for assessment.

Row | Structure (SMILES) | IRI activity of common vitrification solvents [1] | concentration above which significant haemolysis was observed ([2]; 120 minutes at 25° C.) | concentration above which significant haemolysis was observed ([2]; 120 minutes at room temperature, significant haemolysis >5%) | haemolytic property of common cryoprotectant ([2]; general statement)
1 | C[S+](C)[O-] [DMSO, dimethylsulfoxide] | little or no IRI activity | Above 1.5 w/v % | Above 1.5 wt % | strongly haemolytic
2 | OCC(O)CO [glycerol] | little or no IRI activity | – | – | –
